Data taken from the CheMixHub viscosity set.

Assay: xn = mol fraction of the nth substance listed

CCCC(=O)[O-].[NH3+]CCO + CCO
viscosity [mPa·s], 101 kPa
Conditions	x1 = 0.0158	x2 = 0.7685	x2 = 0.8306	x2 = 0.8824	x2 = 0.9289	x2 = 0.9483	x2 = 0.9671
293.15 K	1.608	15.79	8.436	4.968	2.91	2.364	1.944
298.15 K	1.458	13.23	7.272	4.398	2.598	2.148	1.752
303.15 K	1.35	11.24	6.33	3.882	2.34	1.92	1.602

CCCOCC(C)OCC(C)O (stereo unspecified) + CCO
viscosity [mPa·s], 101.33 kPa
Conditions	298.15 K	308.15 K	318.15 K
x1 = 0.05	1.27	1.046	0.872
x1 = 0.1	1.446	1.181	0.978
x1 = 0.15	1.621	1.315	1.081
x1 = 0.2	1.799	1.446	1.18
x1 = 0.25	1.994	1.572	1.278
x1 = 0.3	2.144	1.706	1.374
x1 = 0.3501	2.322	1.83	1.468
x1 = 0.4	2.485	1.944	1.55
x1 = 0.4501	2.643	2.055	1.631
x1 = 0.5	2.795	2.163	1.705
x1 = 0.55	2.942	2.27	1.777
x1 = 0.6	3.081	2.367	1.842
x1 = 0.6497	3.218	2.463	1.905
x1 = 0.6996	3.343	2.55	1.965
x1 = 0.7496	3.475	2.627	2.02
x1 = 0.8	3.593	2.702	2.081
x1 = 0.8499	3.704	2.764	2.131
x1 = 0.8999	3.807	2.839	2.177
x1 = 0.95	3.896	2.906	2.215

CC(=O)Nc1ccccc1 + CO
viscosity [mPa·s], 101 kPa
Conditions	298.15 K	303.15 K	308.15 K	313.15 K
x1 = 0.08868	0.9964	0.918	0.8461	0.7805
x1 = 0.1132	1.158	1.057	0.9716	0.886

CCCOCC(C)OCC(C)O (stereo unspecified) + CO
298.15 K, 101 kPa
Conditions	viscosity [mPa·s]
x1 = 0.0049	0.5615
x1 = 0.0317	0.671
x1 = 0.0663	0.8138
x1 = 0.1021	0.9677
x1 = 0.1531	1.186
x1 = 0.2032	1.412
x1 = 0.2563	1.651
x1 = 0.3125	1.899
x1 = 0.3556	2.09
x1 = 0.4091	2.314
x1 = 0.4685	2.55
x1 = 0.5204	2.746
x1 = 0.5557	2.869
x1 = 0.6337	3.117
x1 = 0.6879	3.273
x1 = 0.7232	3.366
x1 = 0.8407	3.639
x1 = 0.8827	3.724
x1 = 0.937	3.813

CC(=O)OCCC(C)C + Cc1ccc(C)cc1
viscosity [mPa·s], 101 kPa
Conditions	298.15 K	308.15 K
x1 = 0.0453	0.615	0.54
x1 = 0.1495	0.617	0.55
x1 = 0.2436	0.622	0.561
x1 = 0.3501	0.632	0.576
x1 = 0.4497	0.644	0.594
x1 = 0.4974	0.651	0.603
x1 = 0.5484	0.659	0.613
x1 = 0.6458	0.678	0.636
x1 = 0.7503	0.702	0.663
x1 = 0.8492	0.73	0.693
x1 = 0.9411	0.76	0.725

CC(=O)OCCC(C)C + Cc1cccc(C)c1
viscosity [mPa·s], 101 kPa
Conditions	298.15 K	308.15 K
x1 = 0.0471	0.58	0.529
x1 = 0.1507	0.583	0.538
x1 = 0.286	0.593	0.555
x1 = 0.3495	0.599	0.564
x1 = 0.4475	0.614	0.582
x1 = 0.5021	0.625	0.594
x1 = 0.5481	0.634	0.604
x1 = 0.6499	0.659	0.63
x1 = 0.7526	0.69	0.66
x1 = 0.8535	0.724	0.693
x1 = 0.942	0.757	0.725

CC(=O)OCCC(C)C + Cc1ccccc1
viscosity [mPa·s], 101 kPa
Conditions	298.15 K	308.15 K
x1 = 0.0474	0.555	0.505
x1 = 0.1513	0.567	0.522
x1 = 0.2512	0.581	0.54
x1 = 0.3494	0.598	0.56
x1 = 0.4458	0.616	0.581
x1 = 0.4978	0.627	0.593
x1 = 0.5497	0.639	0.606
x1 = 0.649	0.664	0.632
x1 = 0.7499	0.692	0.661
x1 = 0.855	0.726	0.695
x1 = 0.9448	0.759	0.726

CC(=O)OCCC(C)C + Cc1ccccc1C
viscosity [mPa·s], 101 kPa
Conditions	298.15 K	308.15 K
x1 = 0.045	0.754	0.657
x1 = 0.1503	0.745	0.659
x1 = 0.2526	0.738	0.66
x1 = 0.3475	0.735	0.664
x1 = 0.4468	0.735	0.67
x1 = 0.4819	0.735	0.673
x1 = 0.5459	0.737	0.679
x1 = 0.649	0.741	0.69
x1 = 0.7465	0.749	0.702
x1 = 0.8524	0.76	0.719
x1 = 0.9401	0.772	0.735

CC(=O)OCCC(C)C + ClC(Cl)(Cl)Cl
303.15 K, 101.3 kPa
Conditions	viscosity [mPa·s]
x1 = 0.1037	0.8143
x1 = 0.1985	0.8011
x1 = 0.302	0.7904
x1 = 0.4018	0.7782
x1 = 0.5027	0.7656
x1 = 0.603	0.7549
x1 = 0.7015	0.7451
x1 = 0.7985	0.7325
x1 = 0.9013	0.7155

CC(=O)OCCC(C)C + ClC(Cl)Cl
303.15 K, 101.3 kPa
Conditions	viscosity [mPa·s]
x1 = 0.1037	0.5821
x1 = 0.2076	0.6427
x1 = 0.301	0.6846
x1 = 0.3983	0.7145
x1 = 0.5044	0.7309
x1 = 0.6009	0.7377
x1 = 0.6966	0.7338
x1 = 0.8058	0.7252
x1 = 0.8911	0.7143
